One assay concerns wildtype Wnt pathway. Briefly: HEK293 TOP reporter assay, wildtype Wnt pathway stimulated with Wnt-3a. The assay is classed as cell-based, human. The protocol: (§1) Measurement of luciferase expression was done as described for the constitutive active Wnt assay.
In order to discover and characterize small molecules which inhibit the wildtype Wnt pathway, a cellular reporter assay was employed. […] Stable transfectants were generated by selection with 300 μg/ml Hygromycin.

Assay [1] has as its system constitutive active colorectal cancer cell (CRC) Wnt pathway. Briefly: HCT116 TOPFlash cellular reporter assay (Super TopFlash luciferase), constitutive active Wnt pathway. The format is cell-based. As to conditions: HCT116 TOP reporter cells, 36 hours incubation, luciferase expression. As for the experimental part: In order to discover and characterize small molecules which inhibit the constitutive active colorectal cancer cell (CRC) Wnt pathway, a cellular reporter assay was employed. […] Stable transfectants were generated by cotransfection with pcDNA3 and selection of stable transfected cells with 1 mg/ml G418.

In assay [2] the test system is HEK293 FOP control reporter cell line. Briefly: HEK293 FOP control reporter assay. The assay is classed as cell-based, human. As to conditions: read-out: HEK FOP IC50. As for the experimental part: as §1
In a parallel approach, HEK293 cells were cotransfected with the FOP control vector and pcDNA3. The FOP vector is identical to the TOP construct, but it contains instead of functional TCF elements a randomized, non-functional sequence. For this transfection a stable transfected cell line was generated as well, based on selection with Geneticin (1 mg/ml).

Assay [3] concerns HCT116 FOP control reporter cell line. Briefly: HCT116 FOPFlash control reporter assay (FOP control vector, non-functional TCF elements). As to conditions: HCT116 FOP control reporter cells, 36 hours incubation, luciferase expression. The format is cell-based. From the text: In a parallel approach, HCT116 cells were cotransfected with the FOP control vector and pcDNA3. The FOP vector is identical to the TOP construct, but it contains instead of functional TCF elements a randomized, non-functional sequence. For this transfection a stable transfected cell line was generated as well.

Where [4] appears, read: Homo sapiens, HEK293, 16 h; read-out: HEK TOP OncoFlash IC50.
Setting [5] is: HEK293 TOP cells, EC50 concentration of recombinant Wnt-3a, 16 hours; read-out: HEK TOP OncoFlash IC50.
Setting [6] is: HEK293 FOP control cells, EC50 concentration of recombinant Wnt-3a, 16 hours.
[7] abbreviates: Homo sapiens, HEK293, 16 h, read-out: HEK TOP OncoFlash IC50.

Structures can show the parent of a compound that is named as a salt. Where two headings read alike, the source gives them in different places. Where only a bound is given, the exact number is not on record here.

`COc1ccc(C(=O)Nc2ccc(-c3ccccc3F)nc2)cc1NC(=O)C1(N2CCOCC2)CC1` [Example 80, N-[6-(2-fluorophenyl)pyridin-3-yl]-4-methoxy-3-({[1-(morpholin-4-yl)cyclopropyl]carbonyl}amino)benzamide]: the 50% inhibitory concentration (IC50) in the assay on wildtype Wnt pathway (setting [4]) was 150 nM; in assay [1] (Homo sapiens, HCT-116, 36 h), 27 nM; in assay [2] (Homo sapiens, HEK293, 16 h) it was 10000 nM; in assay [3] (Homo sapiens, HCT-116, 36 h), not below 50000 nM.

For `COc1ccc(C(=O)Nc2ccc(-c3ccccc3F)nc2)cc1NC(=O)CN1CCOCC1` [Example 1, N-[6-(2-fluorophenyl)pyridin-3-yl]-4-methoxy-3-[(morpholin-4-ylacetyl)amino]benzamide], the IC50 is 3300 nM with wildtype Wnt pathway (setting [4]); 1140 nM in assay [1] (Homo sapiens, HCT-116, 36 h); not below 50000 nM in assay [2] (Homo sapiens, HEK293, 16 h); not below 50000 nM in assay [3] (Homo sapiens, HCT-116, 36 h).

In the case of `O=C(CN1CCOCC1)Nc1cc(NC(=O)c2ccc(-c3ccccc3)nc2)ccc1OC(F)(F)F` [Example 33, N-{3-[(morpholin-4-ylacetyl)amino]-4-(trifluoromethoxy)phenyl}-6-phenylnicotinamide], the IC50 was 370 nM in the assay on wildtype Wnt pathway (setting [4]); 111 nM in assay [1] (Homo sapiens, HCT-116, 36 h); 7400 nM in assay [2] (Homo sapiens, HEK293, 16 h); not below 50000 nM in assay [3] (Homo sapiens, HCT-116, 36 h).

With `COc1ccc(C(=O)Nc2ccc(-c3ccccc3)nc2)cc1NC(=O)C1(N2CCOCC2)CC1` [Example 81, 4-methoxy-3-({[1-(morpholin-4-yl)cyclopropyl]carbonyl}amino)-N-(6-phenylpyridin-3-yl)benzamide], the concentration for half-maximal inhibition (IC50) in the assay with wildtype Wnt pathway (setting [4]) was 15 nM; in assay [1] (Homo sapiens, HCT-116, 36 h), 23.1 nM; in assay [2] (Homo sapiens, HEK293, 16 h), not below 50000 nM; in assay [3] (Homo sapiens, HCT-116, 36 h), not below 50000 nM.

With `O=C(Nc1nnc(-c2ccccc2)s1)c1ccc(OC2CC2)c(NC(=O)C2(N3CCOCC3)CC2)c1` [Example 159, 4-(cyclopropyloxy)-3-({[1-(morpholin-4-yl)cyclopropyl]carbonyl}amino)-N-(5-phenyl-1,3,4-thiadiazol-2-yl)benzamide], the half-maximal inhibitory concentration (IC50) with wildtype Wnt pathway (setting [4]) was 54 nM; in assay [1] (Homo sapiens, HCT-116, 36 h), 41.4 nM; in assay [2] (Homo sapiens, HEK293, 16 h), not below 50000 nM; in assay [3] (Homo sapiens, HCT-116, 36 h) it was not below 50000 nM.

For the compound `CN1CCN(CC(=O)Nc2cc(C(=O)Nc3ccc(-c4ccccc4)cn3)ccc2OC(F)(F)F)CC1` [Example 132, 3-{[(4-methylpiperazin-1-yl)acetyl]amino}-N-(5-phenylpyridin-2-yl)-4-(trifluoromethoxy)benzamide formiate], the IC50 in the assay with wildtype Wnt pathway (setting [5]) is 70 nM; in assay [1] it was 35.5 nM; in assay [2] (setting [6]), 11000 nM; in assay [3], 20000 nM.

As for `C[C@H](C(=O)Nc1cc(C(=O)Nc2ccc(-c3ccc(N(C)C)cc3)nc2)ccc1OC(F)(F)F)N1CCOCC1` (single isomer, unassigned) [Example 115, N-{6-[4-(dimethylamino)phenyl]pyridin-3-yl}-3-{[(2S)-2-(morpholin-4-yl)propanoyl]amino}-4-(trifluoromethoxy)benzamide or N-{6-[4-(dimethylamino)phenyl]pyridin-3-yl}-3-{[(2R)-2-(morpholin-4-yl)propanoyl]amino}-4-(trifluoromethoxy)benzamide], the IC50 in the assay with wildtype Wnt pathway (setting [5]) was determined as 52 nM; in assay [1], 8.8 nM; in assay [2] (setting [6]), 4700 nM; in assay [3] it was 2200 nM.

In the case of `O=C(CN1CCOCC1)Nc1cc(C(=O)Nc2ccc(-c3ccccc3F)nc2)ccc1OC1CC1` [Example 133, 4-(cyclopropyloxy)-N-[6-(2-fluorophenyl)pyridin-3-yl]-3-[(morpholin-4-ylacetyl)amino]benzamide], the half-maximal inhibitory concentration (IC50) was 130 nM in the assay on wildtype Wnt pathway (setting [4]); 54.6 nM in assay [1] (Homo sapiens, HCT-116, 36 h); not below 50000 nM in assay [2] (Homo sapiens, HEK293, 16 h); not below 50000 nM in assay [3] (Homo sapiens, HCT-116, 36 h).

`O=C(CN1CCOCC1)Nc1cc(C(=O)Nc2ccc(-c3ccccc3)nc2)ccc1OC(F)(F)F` [Example 15, 3-[(morpholin-4-ylacetyl)amino]-N-(6-phenylpyridin-3-yl)-4-(trifluoromethoxy)benzamide]: the IC50 with wildtype Wnt pathway (setting [4]) is 48 nM; in assay [1] (Homo sapiens, HCT-116, 36 h) it was 137 nM; in assay [2] (Homo sapiens, HEK293, 16 h) it was not below 50000 nM; in assay [3] (Homo sapiens, HCT-116, 36 h) it was not below 50000 nM.

Consider `CC(C)(C)c1ccc(NC(=O)c2ccc(-c3ccccc3)s2)cc1NC(=O)CN1CCOCC1` [Example 19, N-{4-tert-butyl-3-[(morpholin-4-ylacetyl)amino]phenyl}-5-phenylthiophene-2-carboxamide], for which the 50% inhibitory concentration (IC50) in the assay on wildtype Wnt pathway (setting [4]) was 990 nM; in assay [1] (Homo sapiens, HCT-116, 36 h), 26.2 nM; in assay [2] (Homo sapiens, HEK293, 16 h) it was not below 50000 nM; in assay [3] (Homo sapiens, HCT-116, 36 h), 11000 nM.

`O=C(CN1CCOCC1)Nc1cc(NC(=O)c2ncc(-c3ccccc3)s2)ccc1OC(F)(F)F` [Example 16, N-{3-[(morpholin-4-ylacetyl)amino]-4-(trifluoromethoxy)phenyl}-5-phenyl-1,3-thiazole-2-carboxamide]: the 50% inhibitory concentration (IC50) is 92 nM in the assay with wildtype Wnt pathway (setting [4]); 17.8 nM in assay [1] (Homo sapiens, HCT-116, 36 h); not below 50000 nM in assay [2] (Homo sapiens, HEK293, 16 h); not below 50000 nM in assay [3] (Homo sapiens, HCT-116, 36 h).

With `O=C(CN1CCOCC1)Nc1cc(NC(=O)c2ccc(-c3ccccc3F)nc2)ccc1OC(F)(F)F` [Example 30, 6-(2-fluorophenyl)-N-{3-[(morpholin-4-ylacetyl)amino]-4-(trifluoromethoxy)phenyl}nicotinamide], the half-inhibitory concentration (IC50) is 1400 nM with wildtype Wnt pathway (setting [4]); 90.1 nM in assay [1] (Homo sapiens, HCT-116, 36 h); not below 50000 nM in assay [2] (Homo sapiens, HEK293, 16 h); not below 50000 nM in assay [3] (Homo sapiens, HCT-116, 36 h).

Take `COc1ccc(NC(=O)c2ccc(-c3ccccc3)s2)cc1NC(=O)CN1CCOCC1` [Example 25, N-{4-methoxy-3-[(morpholin-4-ylacetyl)amino]phenyl}-5-phenylthiophene-2-carboxamide]: the IC50 was 90 nM in the assay with wildtype Wnt pathway (setting [4]); 326 nM in assay [1] (Homo sapiens, HCT-116, 36 h); 10000 nM in assay [2] (Homo sapiens, HEK293, 16 h); not below 50000 nM in assay [3] (Homo sapiens, HCT-116, 36 h).

Regarding `CS(=O)(=O)Cc1ccc(C(=O)Nc2nnc(-c3ccccc3)s2)cc1NC(=O)C1(N2CCN(C3CC3)CC2)CC1` [Example 48, 3-({[1-(4-cyclopropylpiperazin-1-yl)cyclopropyl]carbonyl}amino)-4-[(methylsulfonyl)methyl]-N-(5-phenyl-1,3,4-thiadiazol-2-yl)benzamide], the IC50 in the assay on wildtype Wnt pathway (setting [4]) was 130 nM; in assay [1] (Homo sapiens, HCT-116, 36 h), 73.7 nM; in assay [2] (Homo sapiens, HEK293, 16 h) it was not below 50000 nM; in assay [3] (Homo sapiens, HCT-116, 36 h), not below 50000 nM.

In the case of `CN1CCN(CC(=O)Nc2cc(C(=O)Nc3nnc(-c4ccccc4)s3)ccc2OC(F)(F)F)CC1` [Example 54, 3-{[(4-methylpiperazin-1-yl)acetyl]amino}-N-(5-phenyl-1,3,4-thiadiazol-2-yl)-4-(trifluoromethoxy)benzamide], the half-inhibitory concentration (IC50) in the assay on wildtype Wnt pathway (setting [4]) is 130 nM; in assay [1] (Homo sapiens, HCT-116, 36 h), 104 nM; in assay [2] (Homo sapiens, HEK293, 16 h) it was not below 50000 nM; in assay [3] (Homo sapiens, HCT-116, 36 h), 28000 nM.

For `CC(C(=O)Nc1cc(C(=O)Nc2nnc(-c3ccccc3)s2)ccc1OC(F)F)N1CCN(C)CC1` (stereo not shown) [Example 42, 4-(difluoromethoxy)-3-{[2-(4-methylpiperazin-1-yl)propanoyl]amino}-N-(5-phenyl-1,3,4-thiadiazol-2-yl)benzamide trifluoroacetate (1:1)], the IC50 with wildtype Wnt pathway (setting [7]) was 106 nM; in assay [1] (Homo sapiens, HCT-116, 36 h), 242 nM; in assay [2] (Homo sapiens, HEK293, 16 h) it was not below 50000 nM; in assay [3] (Homo sapiens, HCT-116, 36 h), not below 50000 nM.

Take `O=C(Nc1ccc(-c2ccccc2F)nc1)c1ccc(OC2CC2)c(NC(=O)C2(N3CCOCC3)CC2)c1` [Example 134, 4-(cyclopropyloxy)-N-[6-(2-fluorophenyl)pyridin-3-yl]-3-({[1-(morpholin-4-yl)cyclopropyl]carbonyl}amino)benzamide]: the half-maximal inhibitory concentration (IC50) in the assay with wildtype Wnt pathway (setting [4]) is 31 nM; in assay [1] (Homo sapiens, HCT-116, 36 h), 16.6 nM; in assay [2] (Homo sapiens, HEK293, 16 h) it was 12000 nM; in assay [3] (Homo sapiens, HCT-116, 36 h) it was 5200 nM.

As to `COCc1ccc(C(=O)Nc2nnc(-c3ccccc3)s2)cc1NC(=O)C1(N2CCN(C)CC2)CC1` [Example 45, 4-(methoxymethyl)-3-({[1-(4-methylpiperazin-1-yl)cyclopropyl]carbonyl}amino)-N-(5-phenyl-1,3,4-thiadiazol-2-yl)benzamide hydrochloride (1:1)], the half-inhibitory concentration (IC50) was 190 nM in the assay on wildtype Wnt pathway (setting [7]); 198 nM in assay [1] (Homo sapiens, HCT-116, 36 h); not below 50000 nM in assay [2] (Homo sapiens, HEK293, 16 h); 26500 nM in assay [3] (Homo sapiens, HCT-116, 36 h).

Consider `CS(=O)(=O)Cc1ccc(C(=O)Nc2nnc(-c3ccccc3)s2)cc1NC(=O)C1(N2CCOCC2)CC1` [Example 47, 4-[(methylsulfonyl)methyl]-3-({[1-(morpholin-4-yl)cyclopropyl]carbonyl}amino)-N-(5-phenyl-1,3,4-thiadiazol-2-yl)benzamide], for which the IC50 is 90 nM with wildtype Wnt pathway (setting [4]); 39.8 nM in assay [1] (Homo sapiens, HCT-116, 36 h); not below 50000 nM in assay [2] (Homo sapiens, HEK293, 16 h); not below 50000 nM in assay [3] (Homo sapiens, HCT-116, 36 h).
